SMILES strings stand for the structures.

In one data set the target is Coagulation factor X (Homo sapiens, UniProt P00742). The experiment in a line: Inhibitory activity against Coagulation factor X (FXa).
A further data set concerns the target Prothrombin (Homo sapiens, UniProt P00734). The experiment in a line: Inhibitory activity against Thrombin.
The next data set addresses Trypsin (Homo sapiens, UniProt P07477+P07478+P35030). The experiment in a line: Inhibition of Trypsin. Format: protein assay.
A short description of data set [1]: physchem.
Data set [2] in a line: physchem. Conditions: octanol/water.
The nature of data set [3]: in vivo. Conditions: dog, po.
Data set [4] can be described thus: in vivo. Conditions: dog.
Data set [5] is described as follows: in vivo. The note with it: dog, iv.
Data set [6] in a line: in vivo. Conditions: dog, po. This is another data set of the same source.
The species entered for data set [7] is Oryctolagus cuniculus. The experiment in a line: Dose required for inhibition of thrombus formation in rabbit arterial-venous shunt antithrombosis model. Format: functional.
A short description of data set [8]: in vivo. The note with it: dog, po. The source holds these as a separate data set.
For data set [9], the species on record is Oryctolagus cuniculus. The experiment in a line: Concentration required for inhibition of thrombus formation in rabbit arterial-venous shunt antithrombosis model. Format: functional, organism-based.
A short description of data set [10]: in vivo. The note with it: dog. This is another data set of the same source.
The subject of data set [11] is plasma protein binding (Homo sapiens). The experiment in a line: Percentage binding to human plasma proteins.
The nature of data set [12]: physchem. The note with it: octanol/water. The source holds these as a separate data set.

Chain of Coagulation factor X (P00742 41-179 limits assumed): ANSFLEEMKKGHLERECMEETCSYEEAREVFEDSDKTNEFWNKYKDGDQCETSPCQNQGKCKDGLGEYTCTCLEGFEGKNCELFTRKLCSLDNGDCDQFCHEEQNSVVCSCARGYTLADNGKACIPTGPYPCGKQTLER
Chain of Coagulation factor X (P00742 235-488 limits assumed): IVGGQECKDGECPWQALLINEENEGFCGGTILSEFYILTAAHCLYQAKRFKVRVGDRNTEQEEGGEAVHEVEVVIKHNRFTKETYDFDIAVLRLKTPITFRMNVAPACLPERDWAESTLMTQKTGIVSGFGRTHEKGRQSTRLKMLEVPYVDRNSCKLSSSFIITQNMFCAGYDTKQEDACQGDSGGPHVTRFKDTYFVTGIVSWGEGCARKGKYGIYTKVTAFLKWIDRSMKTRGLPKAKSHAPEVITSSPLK

Consider `Cc1cc(C(=O)Nc2ccc(-c3ccccc3S(N)(=O)=O)cc2)n(-c2cccc(S(N)(=O)=O)c2)n1`, for which the inhibition constant (Ki) – broadly, a dissociation constant, usually derived from enzyme kinetics or from competition with a known ligand – is 5000 nM at Coagulation factor X and above 21000 nM on Prothrombin.

Take `Cc1cc(C(=O)Nc2ccc(-c3ccccc3S(N)(=O)=O)cc2)n(-c2ccc3nc(N)nc(N)c3c2)n1`: the Ki was 16 nM at Coagulation factor X, above 1600 nM on Trypsin and above 21000 nM on Prothrombin. Further, the pKa (in general, the negative logarithm of the acid dissociation constant) in “physchem [1]” was 8.1.

As to `Cc1cc(C(=O)Nc2ccc(-c3ccccc3S(N)(=O)=O)cc2)n(C2CCCNC2)n1` (stereo unspecified), at Prothrombin, the Ki is above 21000 nM. This compound registered a pKa in “physchem [1]” of 10.

For `Cc1cc(C(=O)Nc2ccc(-c3ccccc3S(N)(=O)=O)cc2)n(-c2cccc(C(N)=O)c2)n1`, the logP (in general, the decadic logarithm of the partition coefficient of the neutral form, usually between octanol and water) in “physchem [2]” was 2.1. In addition, the half-life (commonly how long it takes for the measured level to halve) was 3.9 h in “in vivo [3]” and 3.1 h in the data set “in vivo [5]”. For the same compound, the values for the inhibitory constant (Ki) at Trypsin and at Prothrombin were above 1600 nM and above 21000 nM, respectively. Moreover, the clearance (as a rule, the rate of elimination divided by the concentration) in “in vivo [4]” was 4.67 mL/min/kg. Besides, the bioavailability (as a rule, dose-corrected exposure relative to a reference, in per cent) in “in vivo [6]” was 46%. In addition, the pKa in the data set “physchem [1]” was below 0.

`Cc1cc(C(=O)Nc2ccc(-c3ccccc3S(N)(=O)=O)cc2)n(-c2ccc3ccnc(N)c3c2)n1`: the ID50 in the data set filed under Oryctolagus cuniculus [7] came to 1.2 µM/h/kg. Further, the bioavailability in the data set “in vivo [8]” was 13%. Besides, the figures for the inhibitory constant (Ki) on Coagulation factor X, on Trypsin and at Prothrombin were 0.33 nM, 2600 nM and 6500 nM, respectively. Further, the logP in “physchem [2]” was 2.6. In addition, the half-life is 4.4 h in “in vivo [3]” and 3.4 h in the data set “in vivo [5]”. Also, in the data set listed under Oryctolagus cuniculus [9], the IC50 – broadly, the concentration that inhibits the measured activity by half – came to 690 nM. In addition, in the data set “in vivo [10]”, the Vd – broadly, a proportionality between amount in the body and measured concentration, not a real space – turned out to be 1.2 L/kg. In addition, the clearance in “in vivo [4]” is 5.5 mL/min/kg. The compound also had a Binding in data set [11] of 89%. In addition, the pKa in “physchem [1]” is 6.7.

In the case of `Cc1cc(C(=O)Nc2ccc(-c3ccccc3S(N)(=O)=O)cc2)n(CCCCN)n1`, the inhibition constant (Ki) at Coagulation factor X was 12000 nM; at Prothrombin, above 21000 nM. In the data set “physchem [1]”, this compound displayed a pKa of 10.

In the case of `Cc1cc(C(=O)Nc2ccc(-c3ccccc3S(N)(=O)=O)cc2)n(-c2ccc3c(N)[nH]nc3c2)n1`, the inhibitory constant (Ki) on Coagulation factor X was 2800 nM; at Trypsin, above 1600 nM; at Prothrombin, above 21000 nM.

In the case of `Cc1cc(C(=O)Nc2ccc(-c3ccccc3S(N)(=O)=O)cc2)n(-c2ccc3[nH]nc(N)c3c2)n1`, the inhibition constant (Ki) at Coagulation factor X is 29 nM; on Prothrombin, above 21000 nM.

For `Cc1cc(C(=O)Nc2ccc(-c3ccccc3S(N)(=O)=O)cc2)n(-c2cccc(S(C)=N)c2)n1` (stereo unspecified), the inhibition constant (Ki) at Coagulation factor X was 2700 nM; at Prothrombin it was above 21000 nM.

Take `COc1ccc(-n2nc(C)cc2C(=O)Nc2ccc(-c3ccccc3S(N)(=O)=O)cc2)cc1`: the Ki at Coagulation factor X was 11 nM; at Trypsin, above 1600 nM; on Prothrombin, above 21000 nM. For the same compound, in the data set “physchem [2]”, the logP came out at 2.9. The half-life in the data set “in vivo [3]” and in the data set “in vivo [5]” was 4.5 h throughout. In addition, the Vd in the data set “in vivo [10]” was determined as 0.52 L/kg. For the same compound, the clearance in the data set “in vivo [4]” was 1.5 mL/min/kg. The bioavailability in the data set “in vivo [6]” turned out to be 48%. Also, in the data set “physchem [1]”, the pKa was below 0.

Regarding `Cc1cc(C(=O)Nc2ccc(-c3ccccc3S(N)(=O)=O)cc2)n(-c2ccc(N)cc2)n1`, the Ki on Coagulation factor X was 3000 nM; at Prothrombin, above 21000 nM. The compound also registered a pKa in the data set “physchem [1]” of 4.7.

As for `Cc1cc(C(=O)Nc2ccc(-c3ccccc3S(N)(=O)=O)cc2)n(-c2ccc3onc(N)c3c2)n1`, the logP in the data set “physchem [12]” was 2.3. In addition, the Ki at Coagulation factor X was 1.4 nM; at Trypsin it was above 1600 nM; at Prothrombin, above 21000 nM. The half-life is 3.2 h in the data set “in vivo [3]” and 2.8 h in the data set “in vivo [5]”. The compound further yielded a Vd in the data set “in vivo [10]” of 0.7 L/kg. Also, the clearance in the data set “in vivo [4]” was 5 mL/min/kg. Moreover, the bioavailability in the data set “in vivo [6]” turned out to be 26%. The compound also yielded a pKa in the data set “physchem [1]” below 2.3.

`Cc1cc(C(=O)Nc2ccc(-c3ccccc3S(N)(=O)=O)cc2)n(-c2cccc(N)c2)n1`: the inhibitory constant (Ki) is 63 nM at Coagulation factor X, above 1600 nM on Trypsin and above 21000 nM at Prothrombin. Moreover, in the data set “physchem [1]”, the pKa was 4.7.

In the case of `Cc1cc(C(=O)Nc2ccc(-c3ccccc3S(N)(=O)=O)cc2)n(-c2ccc3ncnc(N)c3c2)n1`, the Ki at Coagulation factor X was 29 nM; at Trypsin, above 1600 nM; on Prothrombin, above 21000 nM. Also, the pKa in “physchem [1]” came out at 5.7.

On to `Cc1cc(C(=O)Nc2ccc(-c3ccccc3S(N)(=O)=O)cc2)n(-c2ccc(N)nc2)n1`, for which the Ki was 1300 nM at Coagulation factor X and above 2100 nM at Prothrombin. For the same compound, in “physchem [1]”, the pKa amounted to 7.

Take `Cc1cc(C(=O)Nc2ccc(-c3ccccc3S(N)(=O)=O)cc2)n(-c2ccc3ccncc3c2)n1`: the Ki was 370 nM at Coagulation factor X, above 1600 nM on Trypsin and above 21000 nM at Prothrombin. In “physchem [1]”, this compound came in with a pKa of 5.4.

Take `Cc1cc(C(=O)Nc2ccc(-c3ccccc3S(N)(=O)=O)cc2)n(-c2ccccc2)n1`: the inhibitory constant (Ki) was 198 nM on Coagulation factor X, above 1600 nM on Trypsin and above 21000 nM at Prothrombin.

In the case of `Cc1cc(C(=O)Nc2ccc(-c3ccccc3S(N)(=O)=O)cc2)n(-c2cccc(B(O)O)c2)n1`, the Ki on Coagulation factor X is 61 nM; on Trypsin it was above 1600 nM; at Prothrombin it was above 21000 nM.

For `Cc1cc(C(=O)Nc2ccc(-c3ccccc3S(N)(=O)=O)cc2)n(-c2ccccc2N)n1`, the Ki was 600 nM at Coagulation factor X and above 21000 nM at Prothrombin. Besides, the pKa in “physchem [1]” amounted to 4.7.

As to `Cc1cc(C(=O)Nc2ccc(-c3ccccc3S(N)(=O)=O)cc2)n(-c2cccc(Cl)c2)n1`, the inhibition constant Ki at Coagulation factor X was 37 nM; at Trypsin, above 1600 nM; at Prothrombin, above 21000 nM.

Regarding `Cc1cc(C(=O)Nc2ccc(-c3ccccc3S(N)(=O)=O)cc2)n(-c2cccc(C(=N)NO)c2)n1`, the inhibition constant Ki on Coagulation factor X is 19 nM; at Trypsin, above 1600 nM; at Prothrombin, above 21000 nM. Further, the pKa in “physchem [1]” turned out to be 7.

For the compound `Cc1cc(C(=O)Nc2ccc(-c3ccccc3S(N)(=O)=O)cc2)n(-c2cccc(C#N)c2)n1`, the Ki at Coagulation factor X was 310 nM; on Prothrombin, above 21000 nM.

`Cc1cc(C(=O)Nc2ccc(-c3ccccc3S(N)(=O)=O)cc2)n(-c2cccc(CN)c2)n1` gave a Ki at Prothrombin above 21000 nM.

Values taken from ChEMBL document CHEMBL1145122, “Structure-based design of novel guanidine/benzamidine mimics: potent and orally bioavailable factor Xa inhibitors as novel anticoagulants” (J Med Chem, 2003).
